Several values for one entry are separate records, joined by “and”; a condition that tells them apart may be missing. Identical values can stand only once. Like-named read-outs stand apart in the source and are kept apart here.
Key:
Conditions in all cases: human, in vivo
chronic migraine [1] = system: chronic migraine
migraine [2] = system: migraine
migraine [3] = system: migraine; remark: listed apart in the source
chronic migraine [4] = system: chronic migraine; remark: listed apart in the source
chronic migraine [5] = system: chronic migraine; remark: listed apart in the source

C[C@@H]1[C@H](c2c(F)ccc(F)c2F)C[C@H](NC(=O)c2cnc3c(c2)C[C@@]2(C3)C(=O)Nc3ncccc32)C(=O)N1CC(F)(F)F [atogepant, reference compound]
headache frequency (chronic migraine [1]): 9 days a month

CC12CC3CC(C)(C1)CC(N)(C3)C2 [Namenda, memantine]
benefit of added treatment (migraine [2]): minimal benefit

CC(C)NCC(O)COc1cccc2ccccc12 (centres unmarked) [Propranolol]
adverse effect of oral preventive medication (migraine [3]): limited their exercise tolerance
effect of oral preventive medication on headache frequency (migraine [3]): none of these reduced their headache frequency

CN(C)CCC=C1c2ccccc2CCc2ccccc21 [Amitriptyline, amitriptyline]
change of headaches with oral medication (migraine [2]): minimal change
adverse effect of oral preventive medication (migraine [3]): weight gain
effect of oral preventive medication on headache frequency (migraine [3]): none of these reduced their headache frequency

CC1(C)O[C@@H]2[C@@H](CO[C@@]3(COS(N)(=O)=O)OC(C)(C)O[C@@H]23)O1 [topiramate]
headache control with oral preventive medication (chronic migraine [4]; po): without headache control
change of headaches with oral medication (migraine [2]): minimal change
adverse effect of oral preventive medication (migraine [3]): cognitive slowing
effect of oral preventive medication on headache frequency (migraine [3]): none of these reduced their headache frequency

OnabotulinumtoxinA
improvement of headache days from baseline (chronic migraine [4]): about 50%
migraine days per month (chronic migraine [4]): 15 days per month
headache frequency (chronic migraine [1]): 10 days a month
headache frequency (migraine [2]): 10/30
headache intensity (migraine [2]): 6-7 out of a scale of 10
headache frequency post treatment (chronic migraine [5]): 14 days/month
headache intensity (migraine [3]): 7 out of 10

B1: erenumab (antibody, chains of the INN, looked up, V domains shown)
VH: QVQLVESGGGVVQPGRSLRLSCAASGFTFSSFGMHWVRQAPGKGLEWVAVISFDGSIKYSVDSVKGRFTISRDNSKNTLFLQMNSLRAEDTAVYYCARDRLNYYDSSGYYHYKYYGMAVWGQGTTVTVSS
VL: QSVLTQPPSVSAAPGQKVTISCSGSSSNIGNNYVSWYQQLPGTAPKLLIYDNNKRPSGIPDRFSGSKSGTSTTLGITGLQTGDEADYYCGTWDSRLSAVVFGGGTKLTVL
headache frequency (chronic migraine [5]): 10 days/month and 15 days/month

B2: Ajovy (antibody, chains of the INN, looked up, V domains shown)
VH: EVQLVESGGGLVQPGGSLRLSCAASGFTFSNYWISWVRQAPGKGLEWVAEIRSESDASATHYAEAVKGRFTISRDNAKNSLYLQMNSLRAEDTAVYYCLAYFDYGLAIQNYWGQGTLVTVSS
VL: EIVLTQSPATLSLSPGERATLSCKASKRVTTYVSWYQQKPGQAPRLLIYGASNRYLGIPARFSGSGSGTDFTLTISSLEPEDFAVYYCSQSYNYPYTFGQGTKLEIK
headache intensity (migraine [3]; sc): lower intensity

From patent US20200030415A1 (priority 2018, published 2020)
